Assay results from article PMC7391959 (ACS Omega, 2020).
Where two headings read alike, the source gives them in different places.

Tests used:
[1] = test system: α-glucosidase (S. cerevisiae); assay: Glycosidase inhibition assay, α-glucosidase; assay type: biochemical, Saccharomyces cerevisiae; details: for IC50: 100 μM = maximum inhibitor concentration tested
Description: (§1) Inhibition assays for glycosidases were accomplished using the methodology reported by Bols and co-workers.[32] The percentage of inhibition was measured by preparing two 1.2 mL samples in PS cuvettes containing 0.1 M phosphate buffer (pH 6.8 or 5.6 for mannosidases) and the corresponding o- or p-nitrophenyl-glycopyranoside at a concentration equal to the expected value of KM: [S] = 0.25 mM for α-glucosidase, 4.0 mM for β-glucosidase; 0.60 mM for α-galactosidase, 0.51 mM for β-galactosidase (E. coli), 1.5 mM for β-galactosidase (A. oryzae), 0.90 mM for α-mannosidase, and 0.58 mM for β-mannosidase. DMSO (control) or inhibitor solution (DMSO) plus water was added up to a constant volume of 1.14 mL. Screenings were conducted using a 100 μM final inhibitor concentration.
(§2) Reactions were started by adding 60 μL of properly diluted enzyme solution at 25 ± 0.1 °C or 35 ± 0.1 °C (for mannosidases), and the formation of the corresponding o- or p-nitrophenolate was monitored for 125 s by measuring the increase in absorbance at 400 nm (glucosidases and α-galactosidase) or 420 nm (β-galactosidases) for 125 s. For α- and β-mannosidases, an aliquot (200 μL) was taken every 60 s and added to a 1 M Na2CO3 solution (1.8 mL), and the absorbance was measured at 400 nm over a period of 4 min.
(§3) Initial rates (slopes of the plots Abs vs t) were used for calculating %I, according to the following expression: [drawing 1] where v0 is the reaction rate for the enzyme solution and v is the reaction rate for the reactions incorporating an inhibitor.
(§4) DMSO concentration was maintained at 5% (v/v) of the total assay mixture for glycosidases.
(§5) The mode of inhibition was determined using the Cornish-Bowden method,[33] which involves the use of two different plots: 1/v vs [I] (Dixon plot) and [S]/v vs [I]. For the calculation of kinetic parameters (KM, Vmax), a nonlinear regression analysis (least-squares fit) was used.

[2] = target: T1, α-galactosidase (green coffee beans) (Coffea arabica, UniProt Q42656); assay: Glycosidase inhibition assay, α-galactosidase; assay type: biochemical; details: at 100 μM inhibitor concentration
T1 construct: purchased
T1 sequence (Q42656 16-378): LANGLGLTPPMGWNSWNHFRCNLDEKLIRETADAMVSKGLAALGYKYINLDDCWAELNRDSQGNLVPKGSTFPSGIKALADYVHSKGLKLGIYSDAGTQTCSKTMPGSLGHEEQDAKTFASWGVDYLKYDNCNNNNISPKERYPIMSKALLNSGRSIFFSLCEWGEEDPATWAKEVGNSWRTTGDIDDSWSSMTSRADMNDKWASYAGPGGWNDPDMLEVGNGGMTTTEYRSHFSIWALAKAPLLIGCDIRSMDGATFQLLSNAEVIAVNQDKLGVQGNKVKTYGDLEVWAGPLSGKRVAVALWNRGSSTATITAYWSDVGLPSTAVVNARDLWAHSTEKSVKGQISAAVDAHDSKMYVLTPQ
Description: as §1, §2, §3, §4, §5

[3] = target: β-glucosidase (almonds); assay: Glycosidase inhibition assay, β-glucosidase; assay type: biochemical; details: for IC50: pH 6.8, 25 °C, 100 μM = maximum inhibitor concentration tested; for inhibition: at 100 μM inhibitor concentration
Description: as §1, §2, §3, §4, §5

[4] = target: T2, β-galactosidase (A. oryzae) (Aspergillus oryzae, UniProt Q2UCU3); assay: Glycosidase inhibition assay, β-galactosidase (A. oryzae); assay type: biochemical; details: at 100 μM inhibitor concentration
T2 construct: purchased
T2 sequence (Q2UCU3 19-1005): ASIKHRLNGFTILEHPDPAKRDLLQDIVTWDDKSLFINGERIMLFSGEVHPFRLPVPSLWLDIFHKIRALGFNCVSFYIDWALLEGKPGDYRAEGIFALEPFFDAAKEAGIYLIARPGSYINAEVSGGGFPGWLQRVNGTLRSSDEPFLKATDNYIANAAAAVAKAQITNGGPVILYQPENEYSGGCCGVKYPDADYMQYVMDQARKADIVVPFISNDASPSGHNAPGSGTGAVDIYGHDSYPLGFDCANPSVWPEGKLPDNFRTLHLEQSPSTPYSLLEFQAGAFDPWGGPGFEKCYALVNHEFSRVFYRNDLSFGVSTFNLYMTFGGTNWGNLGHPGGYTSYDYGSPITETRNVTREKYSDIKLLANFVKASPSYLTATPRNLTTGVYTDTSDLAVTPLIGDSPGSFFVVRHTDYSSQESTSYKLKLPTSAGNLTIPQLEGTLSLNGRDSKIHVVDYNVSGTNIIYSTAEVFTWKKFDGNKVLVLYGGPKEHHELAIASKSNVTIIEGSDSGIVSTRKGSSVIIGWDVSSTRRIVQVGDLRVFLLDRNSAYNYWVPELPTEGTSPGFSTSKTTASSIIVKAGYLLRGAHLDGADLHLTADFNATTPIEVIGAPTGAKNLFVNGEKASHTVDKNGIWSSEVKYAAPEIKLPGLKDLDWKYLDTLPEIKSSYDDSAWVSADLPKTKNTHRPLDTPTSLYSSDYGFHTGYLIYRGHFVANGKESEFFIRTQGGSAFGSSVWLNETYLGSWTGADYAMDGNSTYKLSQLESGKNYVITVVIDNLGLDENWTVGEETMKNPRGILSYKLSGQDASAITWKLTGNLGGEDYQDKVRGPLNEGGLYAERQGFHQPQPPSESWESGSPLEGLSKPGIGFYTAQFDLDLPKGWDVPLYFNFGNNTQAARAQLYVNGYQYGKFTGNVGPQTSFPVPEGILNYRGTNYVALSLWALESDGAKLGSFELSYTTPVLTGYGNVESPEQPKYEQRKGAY
Description: as §1, §2, §3, §4, §5

[5] = test system: β-mannosidase (H. pomatia); assay: Glycosidase inhibition assay, β-mannosidase; assay type: biochemical, Helix pomatia; details: at 100 μM inhibitor concentration
Description: as §1, §2, §3, §4, §5

[6] = target: T3, α-mannosidase (jack beans) (Canavalia ensiformis, UniProt C0HJB3); assay: Glycosidase inhibition assay, α-mannosidase; assay type: biochemical; details: for mode of inhibition: Cornish-Bowden method; for Ki: pH 5.6, 35 °C, competitive inhibition
T3 construct: purchased
T3 sequence (C0HJB3 1-981): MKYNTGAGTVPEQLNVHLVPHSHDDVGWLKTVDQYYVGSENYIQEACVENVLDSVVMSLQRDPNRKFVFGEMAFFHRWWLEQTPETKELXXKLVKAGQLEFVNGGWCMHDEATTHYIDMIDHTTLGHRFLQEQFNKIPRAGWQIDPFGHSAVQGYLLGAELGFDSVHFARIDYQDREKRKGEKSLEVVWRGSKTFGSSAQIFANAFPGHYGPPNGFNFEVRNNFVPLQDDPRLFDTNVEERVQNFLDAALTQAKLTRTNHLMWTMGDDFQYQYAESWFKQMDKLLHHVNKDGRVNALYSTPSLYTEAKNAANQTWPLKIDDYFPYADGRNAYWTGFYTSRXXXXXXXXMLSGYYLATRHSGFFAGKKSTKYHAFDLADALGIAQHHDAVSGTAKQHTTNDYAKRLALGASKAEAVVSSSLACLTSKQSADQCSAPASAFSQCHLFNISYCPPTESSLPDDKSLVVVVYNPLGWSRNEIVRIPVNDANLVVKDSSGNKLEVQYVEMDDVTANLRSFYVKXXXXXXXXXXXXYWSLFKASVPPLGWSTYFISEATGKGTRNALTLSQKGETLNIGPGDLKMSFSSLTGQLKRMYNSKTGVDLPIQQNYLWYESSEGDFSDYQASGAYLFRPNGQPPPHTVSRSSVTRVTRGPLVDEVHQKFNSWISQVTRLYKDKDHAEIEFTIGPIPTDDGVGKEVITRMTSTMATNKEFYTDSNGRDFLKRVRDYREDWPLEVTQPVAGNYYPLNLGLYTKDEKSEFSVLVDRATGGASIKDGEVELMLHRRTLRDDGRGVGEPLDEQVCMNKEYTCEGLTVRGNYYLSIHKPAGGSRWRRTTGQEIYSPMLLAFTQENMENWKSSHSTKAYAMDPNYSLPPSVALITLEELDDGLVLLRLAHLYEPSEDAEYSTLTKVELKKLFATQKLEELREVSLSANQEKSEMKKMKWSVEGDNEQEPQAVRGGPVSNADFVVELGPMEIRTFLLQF
Description: as §1, §2, §3, §4, §5

[7] = target: T4, β-galactosidase (E. coli) (Escherichia coli, UniProt P00722); assay: Glycosidase inhibition assay, β-galactosidase (E. coli); assay type: biochemical; details: at 100 μM inhibitor concentration
T4 construct: purchased
T4 sequence (P00722 2-1024): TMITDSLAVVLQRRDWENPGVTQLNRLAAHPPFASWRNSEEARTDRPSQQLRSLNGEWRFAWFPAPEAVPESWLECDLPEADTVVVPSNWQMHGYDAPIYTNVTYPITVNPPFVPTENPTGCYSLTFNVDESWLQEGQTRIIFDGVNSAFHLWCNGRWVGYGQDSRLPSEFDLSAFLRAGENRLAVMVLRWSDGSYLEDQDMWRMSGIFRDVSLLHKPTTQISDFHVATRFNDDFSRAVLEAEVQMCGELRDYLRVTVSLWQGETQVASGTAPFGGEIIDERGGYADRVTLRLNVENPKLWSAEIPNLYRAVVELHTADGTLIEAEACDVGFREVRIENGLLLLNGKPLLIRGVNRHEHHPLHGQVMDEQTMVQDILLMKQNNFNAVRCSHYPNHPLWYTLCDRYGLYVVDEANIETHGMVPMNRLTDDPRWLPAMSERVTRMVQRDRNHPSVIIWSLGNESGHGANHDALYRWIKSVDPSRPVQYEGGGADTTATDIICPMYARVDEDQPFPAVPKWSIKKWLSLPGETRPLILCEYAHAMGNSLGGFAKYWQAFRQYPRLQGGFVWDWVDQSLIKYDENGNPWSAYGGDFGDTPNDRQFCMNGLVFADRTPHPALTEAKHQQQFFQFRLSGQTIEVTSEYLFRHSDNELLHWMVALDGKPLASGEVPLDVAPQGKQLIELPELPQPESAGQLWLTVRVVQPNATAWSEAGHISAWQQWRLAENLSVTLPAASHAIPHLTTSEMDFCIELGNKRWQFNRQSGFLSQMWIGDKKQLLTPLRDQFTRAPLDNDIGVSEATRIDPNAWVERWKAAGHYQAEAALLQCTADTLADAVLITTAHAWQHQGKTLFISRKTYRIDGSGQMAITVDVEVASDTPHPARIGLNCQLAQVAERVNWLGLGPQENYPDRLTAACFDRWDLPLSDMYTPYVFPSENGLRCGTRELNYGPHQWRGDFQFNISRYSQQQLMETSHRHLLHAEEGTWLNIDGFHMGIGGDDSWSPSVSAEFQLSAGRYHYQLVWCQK
Description: as §1, §2, §3, §4, §5

[8] = target: β-glucosidase (almonds); details: cited from earlier work
[9] = target: T1, α-galactosidase (green coffee beans); design: method as in PMID 21548609; details: cited from earlier work
[10] = target: T2, β-galactosidase (A. oryzae); design: method as in PMID 21548609; details: cited from earlier work
[11] = target: T4, β-galactosidase (E. coli); details: cited from earlier work

Cl.N=C1[C@@H](O)[C@H](O)[C@@H](CO)N1N [4Cl, (2R,3R,4R)-1-Amino-3,4-dihydroxy-2-(hydroxymethyl)-5-iminopyrrolidine Hydrochloride]
mode of inhibition ([1]; Cornish-Bowden method): competitive | Ki ([1]; pH 6.8, 25 °C): 5 µM | IC50 ([1]; pH 6.8, 25 °C): 6.6 µM | inhibition [2]: N.I. ^b | IC50 [3]: > 100 µM | inhibition [4]: N.I. ^b | inhibition [5]: N.I. ^b | mode of inhibition [6]: competitive | Ki [6]: 0.23 µM | inhibition [7]: N.I. ^b

CCNN1C(=N)[C@@H](O)[C@H](O)[C@H]1CO.Cl [5Cl, (2R,3R,4R)-1-(Ethylamino)-3,4-dihydroxy-2-(hydroxymethyl)-5-iminopyrrolidine Hydrochloride]
IC50 ([1]; pH 6.8, 25 °C): > 100 µM | inhibition [2]: N.I. ^b | inhibition [3]: N.I. ^b | inhibition [4]: N.I. ^b | inhibition [5]: N.I. ^b | mode of inhibition [6]: competitive | fold impairment in the activity against α-mannosidase ([6]; N-ethyl 5Cl compared with 4Cl): roughly 6 fold | Ki [6]: 1.4 µM | inhibition [7]: N.I. ^b

Cl.NN1C(=O)[C@@H](O)[C@H](O)[C@H]1CO [6HCl, (3S,4R,5R)-1-Amino-3,4-dihydroxy-5-(hydroxymethyl)-2-pyrrolidinone Hydrochloride]
IC50 ([1]; pH 6.8, 25 °C): > 100 µM | inhibition [2]: N.I. ^b | inhibition [3]: N.I. ^b | inhibition [4]: N.I. ^b | inhibition [5]: N.I. ^b | inhibition ([6]; at 100 μM inhibitor concentration): N.I. ^b | inhibition [7]: N.I. ^b

OC[C@H]1NC[C@H](O)[C@@H](O)[C@@H]1O [DNJ, 1-deoxynojirimycin, reference compound]
IC50 [3]: […] | inhibition [4]: N.I. ^b | inhibition [7]: N.I. ^b

OC[C@H]1CNC[C@@H](O)[C@@H]1O [compound 1, isofagomine, reference compound]
IC50 ([1]; pH 6.8, 25 °C): 32 µM | inhibition [2]: N.I. ^b | IC50 [3]: 0.48 µM | inhibition [4]: N.I. ^b | inhibition [7]: N.I. ^b | Ki ([8]; source of β-glucosidase not given): 0.11 µM

N=C1NC[C@H](CO)[C@@H](O)[C@@H]1O [compound 2, isofagomidine]
inhibition [9]: N.I. ^d | Ki [10]: 210 µM | Ki [8]: > 210 µM | inhibition [11]: N.I. ^d
